Test [1] concerns the target T1, recombinant human Dopamine Subtype D2s receptors (Homo sapiens, UniProt P14416).
T1 construct: purchased Perkin Elmer
The test can be described thus: Dopamine D2 selectivity assay, [3H]-spiperone binding to membranes. The following applies: inhibition of [3H]-spiperone binding, read-out: D2 bind pIC50 (converted). A digest of the protocol: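 Human D2s receptor membranes incubated 2 h at room temperature with 0.16 nM [3H]-spiperone and test compound in HEPES buffer pH 7.4 (120 mM NaCl, 0.1% gelatin). Non-specific binding defined with 10 μM haloperidol; filter-bound radioactivity counted, pIC50 from four-parameter logistic fit.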

Test [2] addresses T2, recombinant human adrenergic beta 1 receptors (Homo sapiens, UniProt P08588).
T2 construct: purchased Euroscreen
The test can be described thus: Adrenergic β1 selectivity assay, [125I]-Iodocyanopindolol binding to membranes. The following applies: inhibition of [125I]-Iodocyanopindolol binding, read-out: β1 bind pIC50 (converted). A digest of the protocol: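 Recombinant human β1 membranes in HEPES buffer pH 7.4 with 120 mM NaCl were incubated 2 hours at room temperature with 0.036 nM [^125I]-Iodocyanopindolol. Nonspecific binding defined by 10 μM propranolol; bound radioactivity counted after filtration. pIC50 from four-parameter logistic fit.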

In another test the target is T3, Adrenergic β2 (Homo sapiens, UniProt P07550).
T3 construct: Adherent H292 cells were removed from tissue culture flasks; endogenous in cells; host or cells: H292 cells
The test can be described thus: Adrenergic β2 mediated cAMP production in H292 cells (AlphaScreen cAMP detection). Type of test: cell-based. More on the design: key to β2 Int Act: fraction of formoterol maximum activity (formoterol = 1). The following applies: for β2 Int Act: Intrinsic Activity as a fraction relative to the maximum activity determined for formoterol; for EC50: cAMP production, 60 minutes at room temperature, 300 μM rolipram, read-out: β2 pEC50 (converted). The procedure, abridged:
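H292 cells pre-treated 10 min with rolipram (300 μM final), then given agonist for 60 min at room temperature in HBSS/10 mM HEPES pH 7.4, 1.6% DMSO final. Lysate cAMP measured by AlphaScreen against a cAMP standard curve. Four-parameter fit gives pEC50; intrinsic activity relative to formoterol maximum.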
A general note: Changes in cAMP serve as a functional read-out for many G protein-coupled receptors.

Counter-ions that a name gives are not always drawn.

T2 sequence (P08588 whole entry): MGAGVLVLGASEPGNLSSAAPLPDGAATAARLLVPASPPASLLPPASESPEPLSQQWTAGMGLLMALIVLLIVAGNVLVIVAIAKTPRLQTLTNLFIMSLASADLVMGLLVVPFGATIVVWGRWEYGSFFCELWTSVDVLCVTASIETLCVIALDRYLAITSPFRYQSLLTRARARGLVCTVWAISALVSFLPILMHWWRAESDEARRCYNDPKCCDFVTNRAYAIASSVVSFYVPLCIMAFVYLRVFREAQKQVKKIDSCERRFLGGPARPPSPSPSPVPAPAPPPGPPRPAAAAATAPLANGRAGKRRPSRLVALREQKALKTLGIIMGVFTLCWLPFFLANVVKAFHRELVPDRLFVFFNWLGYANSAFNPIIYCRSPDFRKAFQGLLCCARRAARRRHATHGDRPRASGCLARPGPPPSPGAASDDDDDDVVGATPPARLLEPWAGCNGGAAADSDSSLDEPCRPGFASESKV
T3 sequence (P07550 whole entry): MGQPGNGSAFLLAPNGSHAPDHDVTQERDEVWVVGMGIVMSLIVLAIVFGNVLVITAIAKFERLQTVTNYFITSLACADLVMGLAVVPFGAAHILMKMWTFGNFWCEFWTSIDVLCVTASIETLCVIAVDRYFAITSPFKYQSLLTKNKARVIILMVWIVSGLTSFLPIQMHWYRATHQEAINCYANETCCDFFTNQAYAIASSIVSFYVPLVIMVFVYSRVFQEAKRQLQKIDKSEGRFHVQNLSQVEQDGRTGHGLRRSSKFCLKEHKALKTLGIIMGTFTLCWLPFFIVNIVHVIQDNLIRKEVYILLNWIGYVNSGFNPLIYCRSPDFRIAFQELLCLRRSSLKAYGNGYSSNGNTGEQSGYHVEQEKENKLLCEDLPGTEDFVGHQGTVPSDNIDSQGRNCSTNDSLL
T1 sequence (P14416 1-414 isoform P14416-2): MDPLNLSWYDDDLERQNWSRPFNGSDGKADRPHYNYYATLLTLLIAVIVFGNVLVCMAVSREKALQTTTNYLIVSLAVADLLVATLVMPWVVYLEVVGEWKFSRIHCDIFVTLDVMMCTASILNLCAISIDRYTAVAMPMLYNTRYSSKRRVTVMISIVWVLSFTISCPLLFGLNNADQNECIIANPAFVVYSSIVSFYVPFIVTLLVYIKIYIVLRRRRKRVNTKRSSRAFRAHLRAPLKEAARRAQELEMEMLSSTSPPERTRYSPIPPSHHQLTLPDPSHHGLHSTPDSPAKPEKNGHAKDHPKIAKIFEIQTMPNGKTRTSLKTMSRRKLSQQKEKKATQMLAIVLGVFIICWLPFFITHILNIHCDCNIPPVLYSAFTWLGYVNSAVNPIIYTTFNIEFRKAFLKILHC

As to `CCCC[C@@H](C)N(CCNCCc1ccc(O)c2c1OCC(=O)N2)C(=O)CCNCCc1cc(F)cc(Cl)c1` [Example 50, (R)-3-(3-Chloro-5-fluorophenethylamino)-N-(hexan-2-yl)-N-(2-(2-(5-hydroxy-3-oxo-3,4-dihydro-2H-benzo[b][1,4]oxazin-8-yl)ethylamino)ethyl)propanamide bis(trifluoroacetate)], the IC50 in test [1] was 31.6 nM. The IC50 in test [2] is 1260 nM. At Adrenergic β2, the “β2 Int Act” value was 0.89 and the EC50 was 1.26 nM.

Consider `CCCC[C@@H](C)N(CCNCCc1ccc(O)c2c1OCC(=O)N2)C(=O)CCNCCc1cc(C)ccc1F` [Example 56, (R)-3-(2-Fluoro-5-methylphenethylamino)-N-(hexan-2-yl)-N-(2-(2-(5-hydroxy-3-oxo-3,4-dihydro-2H-benzo[b][1,4]oxazin-8-yl)ethylamino)ethyl)propanamide bis(trifluoroacetate)], for which the IC50 in test [1] was 31.6 nM; in test [2], 2000 nM. In addition, at Adrenergic β2, the “β2 Int Act” value came out at 0.91. For the same compound, the EC50 on Adrenergic β2 is 7.94 nM.

In the case of `O=C(CCNCCc1ccccc1)N(CCNCCc1ccc(O)c(O)c1)C1CCCCC1` [Example 22, N-Cyclohexyl-N-(2-(3,4-dihydroxyphenethylamino)ethyl)-3-(phenethylamino)propanamide bis(trifluoroacetate)], the IC50 in test [1] is 501 nM. Moreover, the IC50 in test [2] is 2510 nM. For the same compound, on Adrenergic β2, the “β2 Int Act” value is reported as 1.01 and the EC50 was 20 nM.

Take `O=C(CCOCCc1ccccc1)N(CCNCCc1ccc(O)c2[nH]c(=O)ccc12)C1CCCCC1` [Example 2, N-Cyclohexyl-N-(2-(2-(8-hydroxy-2-oxo-1,2-dihydroquinolin-5-yl)ethylamino)ethyl)-3-phenethoxypropanamide]: in test [1], the IC50 is greater than 6310 nM. The IC50 in test [2] is greater than 6310 nM. At Adrenergic β2, the “β2 Int Act” value was determined as 0.93 and the EC50 was 12.6 nM.

Regarding `O=C1COc2c(CCNCCN(C(=O)CCOCCc3cccc(F)c3)C3CCCCC3)ccc(O)c2N1` [Example 74, N-Cyclohexyl-3-(3-fluorophenethoxy)-N-(2-(2-(5-hydroxy-3-oxo-3,4-dihydro-2H-benzo[b][1,4]oxazin-8-yl)ethylamino)ethyl)propanamide trifluoroacetate], in test [1], the IC50 is 2000 nM. Further, in test [2], the IC50 is 2510 nM. Further, at Adrenergic β2, the “β2 Int Act” value came out at 0.97 and the EC50 was 2 nM.

In the case of `O=C1COc2c(CCNCCN(C(=O)CCNCCc3cccc(Cl)c3)C3CCCCCC3)ccc(O)c2N1` [Example 68, 3-(3-Chlorophenethylamino)-N-cycloheptyl-N-(2-(2-(5-hydroxy-3-oxo-3,4-dihydro-2H-benzo[b][1,4]oxazin-8-yl)ethylamino)ethyl)propanamide bis(trifluoroacetate)], in test [1], the IC50 is 100 nM. Besides, the IC50 in test [2] is 398 nM. On Adrenergic β2, the “β2 Int Act” value was determined as 0.93 and the EC50 is 3.98 nM.

For `O=C1COc2c(CCNCCN(C(=O)CCNCCc3cccc(F)c3)C3CCCCCC3)ccc(O)c2N1` [Example 69, N-Cycloheptyl-3-(3-fluorophenethylamino)-N-(2-(2-(5-hydroxy-3-oxo-3,4-dihydro-2H-benzo[b][1,4]oxazin-8-yl)ethylamino)ethyl)propanamide bis(trifluoroacetate)], the IC50 in test [1] was 158 nM; in test [2], 794 nM. Besides, the “β2 Int Act” value at Adrenergic β2 is reported as 0.88. The EC50 at Adrenergic β2 is 1.58 nM.

Regarding `C[C@H](C1CCCCC1)N(CCNCCc1ccc(O)c2c1OCC(=O)N2)C(=O)CCNCCc1ccccc1` [Example 61, (R)—N-(1-Cyclohexylethyl)-N-(2-(2-(5-hydroxy-3-oxo-3,4-dihydro-2H-benzo[b][1,4]oxazin-8-yl)ethylamino)ethyl)-3-(phenethylamino)propanamide bis(trifluoroacetate)], the IC50 in test [1] was 100 nM. For the same compound, in test [2], the IC50 was 501 nM. At Adrenergic β2, the “β2 Int Act” value was 0.84 and the EC50 is 3.16 nM.

With `Cc1cc(CCNCCC(=O)N(CCNCCc2ccc(O)c3c2OCC(=O)N3)C2CCCCC2)ccc1F` [Example 40, N-Cyclohexyl-3-(4-fluoro-3-methylphenethylamino)-N-(2-(2-(5-hydroxy-3-oxo-3,4-dihydro-2H-benzo[b][1,4]oxazin-8-yl)ethylamino)ethyl)propanamide bis(trifluoroacetate)], in test [1], the IC50 was 398 nM. Also, in test [2], the IC50 is greater than 7940 nM. For the same compound, on Adrenergic β2, the “β2 Int Act” value is given as 0.96 and the EC50 is 251 nM.

Take `O=CNc1cc(CCNCCN(C(=O)CCNCCc2ccccc2)C2CCCCC2)ccc1O` [Example 21, N-Cyclohexyl-N-(2-(3-formamido-4-hydroxyphenethylamino)ethyl)-3-(phenethylamino)propanamide]: in test [1], the IC50 was 1260 nM. Further, in test [2], the IC50 is greater than 10000 nM. Moreover, on Adrenergic β2, the “β2 Int Act” value stood at 0.83 and the EC50 is 31.6 nM.

With `CC[C@@H](C)N(CCNCCc1ccc(O)c2[nH]c(=O)ccc12)C(=O)CCOCCc1ccccc1.Cl` [Example 79, (R)—N-sec-Butyl-N-(2-(2-(8-hydroxy-2-oxo-1,2-dihydroquinolin-5-yl)ethylamino)ethyl)-3-phenethoxypropanamide hydrochloride], the IC50 in test [1] is greater than 10000 nM. Further, the IC50 in test [2] is greater than 10000 nM. In addition, on Adrenergic β2, the “β2 Int Act” value came out at 0.92 and the EC50 was 50.1 nM.

Turning to `O=C1COc2c(CCNCCN(C(=O)CCNCCc3ccc(Cl)cc3)C3CCCCCC3)ccc(O)c2N1` [Example 63, 3-(4-Chlorophenethylamino)-N-cycloheptyl-N-(2-(2-(5-hydroxy-3-oxo-3,4-dihydro-2H-benzo[b][1,4]oxazin-8-yl)ethylamino)ethyl)propanamide bis(trifluoroacetate)], in test [1], the IC50 was 39.8 nM. In test [2], the IC50 was 251 nM. In addition, on Adrenergic β2, the “β2 Int Act” value came to 0.79 and the EC50 is 2 nM.

Take `O=C1COc2c(CCNCCN(C(=O)CCOCCc3ccc(F)cc3)C3CCCCC3)ccc(O)c2N1` [Example 75, N-Cyclohexyl-3-(4-fluorophenethoxy)-N-(2-(2-(5-hydroxy-3-oxo-3,4-dihydro-2H-benzo[b][1,4]oxazin-8-yl)ethylamino)ethyl)propanamide trifluoroacetate]: the values for the IC50 in test [1] and in test [2] were 2000 nM and 1260 nM, respectively. For the same compound, on Adrenergic β2, the “β2 Int Act” value turned out to be 0.96. In addition, at Adrenergic β2, the EC50 is 2.51 nM.

As to `O=C1COc2c(CCNCCN(C(=O)CCOCCc3ccccc3F)C3CCCCC3)ccc(O)c2N1` [Example 76, N-Cyclohexyl-3-(2-fluorophenethoxy)-N-(2-(2-(5-hydroxy-3-oxo-3,4-dihydro-2H-benzo[b][1,4]oxazin-8-yl)ethylamino)ethyl)propanamide trifluoroacetate], in test [1], the IC50 was 2510 nM. For the same compound, the IC50 in test [2] is 2000 nM. On Adrenergic β2, the “β2 Int Act” value was found to be 1.1 and the EC50 is 1.58 nM.

`O=C1COc2c(CCNCCN(C(=O)CCNCCc3cc(F)cc(F)c3)C3CCCCC3)ccc(O)c2N1` [Example 35, N-Cyclohexyl-3-(3,5-difluorophenethylamino)-N-(2-(2-(5-hydroxy-3-oxo-3,4-dihydro-2H-benzo[b][1,4]oxazin-8-yl)ethylamino)ethyl)propanamide bis(trifluoroacetate)]: the IC50 is 251 nM in test [1] and greater than 10000 nM in test [2]. Further, at Adrenergic β2, the “β2 Int Act” value was found to be 0.87. Moreover, the EC50 on Adrenergic β2 is 1.58 nM.

As for `CCCC[C@@H](C)N(CCNCCc1ccc(O)c2c1OCC(=O)N2)C(=O)CCNCCc1cc(F)ccc1C` [Example 57, (R)-3-(5-Fluoro-2-methylphenethylamino)-N-(hexan-2-yl)-N-(2-(2-(5-hydroxy-3-oxo-3,4-dihydro-2H-benzo[b][1,4]oxazin-8-yl)ethylamino)ethyl)propanamide bis(trifluoroacetate)], in test [1], the IC50 was 15.8 nM. Besides, in test [2], the IC50 was 1580 nM. Further, on Adrenergic β2, the “β2 Int Act” value turned out to be 0.91 and the EC50 is 7.94 nM.

Turning to `CCCC[C@@H](C)N(CCNCCc1ccc(O)c2c1OCC(=O)N2)C(=O)CCNCCc1ccccc1` [Example 25, (R)—N-(Hexan-2-yl)-N-(2-(2-(5-hydroxy-3-oxo-3,4-dihydro-2H-benzo[b][1,4]oxazin-8-yl)ethylamino)ethyl)-3-(phenethylamino)propanamide bis(trifluoroacetate)], the IC50 in test [1] is 100 nM. For the same compound, the IC50 in test [2] is 2510 nM. For the same compound, on Adrenergic β2, the “β2 Int Act” value came out at 0.9 and the EC50 was 1 nM.

The values are drawn from US20100056508A1, “AMINE DERIVATIVES AND THEIR USE IN BETA-2-ADRENORECEPTOR MEDIATED DISEASES” (ASTRAZENECA AB, priority 2006, published 2010).
